Experiment in all cases: relative viability (nuclei count vs DMSO), 5 days (fraction); higher = more cells survive
Compound in assay [1]: Cc1ccc(C(=O)N(CCCN)[C@@H](c2nc3cc(Cl)ccc3c(=O)n2Cc2ccccc2)C(C)C)cc1 [Ispinesib] + CC(=O)c1c(C)c2cnc(Nc3ccc(N4CCNCC4)cn3)nc2n(C2CCCC2)c1=O [Palbociclib] (partner 0.5 µM)
The essentials: (§1)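 Nuclei were stained with Hoechst during a one-step fixation (final 0.05% Triton X-100, 1% formaldehyde, 1 ug/ml Hoechst) carried out 5 days after dosing, then counted on 4× images. The cells, lung cancer lines in 1536-well plates, had been dosed by pin tool the day after seeding with one drug alone or a fixed anchor-drug dose plus five library-drug doses (not always all listed) in √10 steps. Relative viability is the nuclei count in treated wells divided by that in vehicle wells, and each value is the median of duplicate plates.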

Compound in assay [2]: Cc1ccc(C(=O)N(CCCN)[C@@H](c2nc3cc(Cl)ccc3c(=O)n2Cc2ccccc2)C(C)C)cc1 [Ispinesib] + O=C(CCCCCCC(=O)Nc1ccccc1)NO [Vorinostat] (partner 1 µM)
The essentials:
as §1

Compound in assay [3]: Cc1ccc(C(=O)N(CCCN)[C@@H](c2nc3cc(Cl)ccc3c(=O)n2Cc2ccccc2)C(C)C)cc1 [Ispinesib] + NC(=O)Nc1cc(-c2cccc(F)c2)sc1C(=O)N[C@H]1CCCNC1 [AZD7762] (partner 0.2 µM)
Put shortly:
as §1

Compound in assay [4]: C[C@]1(O)C[C@@H](c2nc(-c3ccc4ccc(-c5ccccc5)nc4c3)c3c(N)nccn32)C1 [Linsitinib] + CC1(C)CCC(c2ccc(Cl)cc2)=C(CN2CCN(c3ccc(C(=O)NS(=O)(=O)c4ccc(N[C@H](CCN5CCOCC5)CSc5ccccc5)c(S(=O)(=O)C(F)(F)F)c4)cc3)CC2)C1 [Navitoclax] (partner 0.5 µM)
The essentials: as §1

As to NCI-H460, the relative viability is 0.288 in assay [1] (first compound 0.001 µM); 0.181 in assay [1] (first compound 0.003162 µM); 0.184 in assay [1] (first compound 0.01 µM); 0.0542 in assay [1] (first compound 0.03162 µM); 0.0736 in assay [1] (first compound 0.1 µM); 1.37 in assay [2] (first compound 0.001 µM). In addition, the relative viability is 1.03 in assay [2] (first compound 0.003162 µM); 1.1 in assay [2] (first compound 0.01 µM); 0.237 in assay [2] (first compound 0.03162 µM); 0.107 in assay [2] (first compound 0.1 µM); 0.711 in assay [3] (first compound 0.001 µM); 0.757 in assay [3] (first compound 0.003162 µM). The relative viability came out at 1.01 in assay [3] (first compound 0.01 µM); 0.632 in assay [3] (first compound 0.03162 µM); 0.0769 in assay [3] (first compound 0.1 µM); 1.08 in assay [4] (first compound 0.01 µM); 0.97 in assay [4] (first compound 0.03162 µM); 1.25 in assay [4] (first compound 0.1 µM). Further, the relative viability in assay [4] (first compound 0.3162 µM) amounted to 1.01; in assay [4] (first compound 1 µM) it was 1.12.

Regarding EPLC-272H, the relative viability in assay [1] (first compound 0.001 µM) worked out at 0.341; in assay [1] (first compound 0.003162 µM), 0.306; in assay [1] (first compound 0.01 µM) it was 0.329; in assay [1] (first compound 0.03162 µM), 0.328; in assay [1] (first compound 0.1 µM), 0.149; in assay [2] (first compound 0.001 µM), 0.351. Also, the relative viability in assay [2] (first compound 0.003162 µM) was determined as 0.635; in assay [2] (first compound 0.01 µM), 0.322; in assay [2] (first compound 0.03162 µM), 0.128; in assay [2] (first compound 0.1 µM), 0.341; in assay [3] (first compound 0.001 µM), 0.226; in assay [3] (first compound 0.003162 µM) it was 0.253. Further, the relative viability is 0.21 in assay [3] (first compound 0.01 µM); 0.16 in assay [3] (first compound 0.03162 µM); 0.0883 in assay [3] (first compound 0.1 µM); 1.12 in assay [4] (first compound 0.01 µM); 1.29 in assay [4] (first compound 0.03162 µM); 1.41 in assay [4] (first compound 0.1 µM). Also, the relative viability in assay [4] (first compound 1 µM) stood at 1.2.

With NCI-H322M, the relative viability in assay [1] (first compound 0.001 µM) is 0.5; in assay [1] (first compound 0.003162 µM) it was 0.505; in assay [1] (first compound 0.01 µM), 0.494; in assay [1] (first compound 0.03162 µM), 0.463; in assay [1] (first compound 0.1 µM), 0.426; in assay [2] (first compound 0.001 µM), 0.96. The relative viability in assay [2] (first compound 0.003162 µM) is 0.95; in assay [2] (first compound 0.01 µM) it was 0.995; in assay [2] (first compound 0.03162 µM), 0.659; in assay [2] (first compound 0.1 µM), 0.505; in assay [3] (first compound 0.001 µM) it was 0.561; in assay [3] (first compound 0.003162 µM) it was 0.654. Further, the relative viability turned out to be 0.464 in assay [3] (first compound 0.01 µM); 0.494 in assay [3] (first compound 0.03162 µM); 0.484 in assay [3] (first compound 0.1 µM); 1.3 in assay [4] (first compound 0.01 µM); 1.4 in assay [4] (first compound 0.03162 µM); 1.25 in assay [4] (first compound 0.1 µM). Also, the relative viability was found to be 1.23 in assay [4] (first compound 0.3162 µM) and 1.27 in assay [4] (first compound 1 µM).

With NCI-H2405, the relative viability in assay [1] (first compound 0.001 µM) is 0.546; in assay [1] (first compound 0.003162 µM), 0.555; in assay [1] (first compound 0.01 µM), 0.512; in assay [1] (first compound 0.03162 µM) it was 0.479; in assay [1] (first compound 0.1 µM) it was 0.397; in assay [2] (first compound 0.001 µM), 1.07. In addition, the relative viability in assay [2] (first compound 0.003162 µM) amounted to 1.19; in assay [2] (first compound 0.01 µM), 1.23; in assay [2] (first compound 0.03162 µM), 0.622; in assay [2] (first compound 0.1 µM), 0.519; in assay [3] (first compound 0.001 µM) it was 0.867; in assay [3] (first compound 0.003162 µM), 0.791. The relative viability in assay [3] (first compound 0.01 µM) came to 0.73; in assay [3] (first compound 0.03162 µM), 0.711; in assay [3] (first compound 0.1 µM), 0.363; in assay [4] (first compound 0.01 µM), 0.906; in assay [4] (first compound 0.03162 µM) it was 0.72; in assay [4] (first compound 0.1 µM), 0.954. Further, the relative viability in assay [4] (first compound 0.3162 µM) is 0.716; in assay [4] (first compound 1 µM), 0.846.

For the origin of these results see the supplement of paper PMC10307832.
